Experiments:
[1] = molecular target: T1, 5-hydroxytryptamine receptor 1A (Homo sapiens, UniProt P08908); assay: Displacement of [3H]-5-HT from human 5-HT1A receptor expressed in CHOK1 cells after 30 mins by liquid scintillation counting analysis; format: cell-based, CHO-K1
T1 sequence (P08908 whole entry): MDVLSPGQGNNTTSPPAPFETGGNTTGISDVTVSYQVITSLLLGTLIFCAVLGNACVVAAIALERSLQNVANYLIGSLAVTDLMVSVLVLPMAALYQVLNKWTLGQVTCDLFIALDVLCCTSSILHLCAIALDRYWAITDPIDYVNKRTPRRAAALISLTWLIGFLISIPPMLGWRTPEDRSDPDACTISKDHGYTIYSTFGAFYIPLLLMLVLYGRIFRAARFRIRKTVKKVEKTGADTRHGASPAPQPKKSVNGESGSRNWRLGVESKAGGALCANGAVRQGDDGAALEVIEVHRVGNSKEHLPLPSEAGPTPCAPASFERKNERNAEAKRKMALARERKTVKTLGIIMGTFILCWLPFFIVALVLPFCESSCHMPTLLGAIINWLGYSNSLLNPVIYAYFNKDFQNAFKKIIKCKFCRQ

[2] = molecular target: T2, 5-hydroxytryptamine receptor 7 (Homo sapiens, UniProt P34969); assay: Displacement of [3H]-8-OH-DPAT from human 5-HT7 receptor expressed in CHOK1 cells after 30 mins by liquid scintillation counting analysis; format: cell-based, CHO-K1
[3] = molecular target: T2, 5-hydroxytryptamine receptor 7; assay: Displacement of [3H]-8-OH-DPAT from human 5-HT7 receptor expressed in CHOK1 cells at 10^-5 M after 30 mins by liquid scintillation counting analysis; format: cell-based; conditions: CHO-K1
[4] = molecular target: 5-hydroxytryptamine receptor 1B (Homo sapiens) (UniProt P28222); assay: Antagonist activity at human […] receptor expressed in HEK293 cells assessed as inhibition of 5-CT-induced cAMP production at 1 uM after 30 mins by TR-FRET assay; format: functional, cell-based
Homo sapiens [5] = species on record: Homo sapiens; assay: Selectivity ratio of Ki for human 5-HT7 receptor to Ki for human 5-HT1A receptor
[6] = molecular target: T3, 5-hydroxytryptamine receptor 1A (Rattus norvegicus, UniProt P19327); assay: Binding affinity to rat hippocampus 5-HT1A receptor
T3 sequence (P19327 whole entry): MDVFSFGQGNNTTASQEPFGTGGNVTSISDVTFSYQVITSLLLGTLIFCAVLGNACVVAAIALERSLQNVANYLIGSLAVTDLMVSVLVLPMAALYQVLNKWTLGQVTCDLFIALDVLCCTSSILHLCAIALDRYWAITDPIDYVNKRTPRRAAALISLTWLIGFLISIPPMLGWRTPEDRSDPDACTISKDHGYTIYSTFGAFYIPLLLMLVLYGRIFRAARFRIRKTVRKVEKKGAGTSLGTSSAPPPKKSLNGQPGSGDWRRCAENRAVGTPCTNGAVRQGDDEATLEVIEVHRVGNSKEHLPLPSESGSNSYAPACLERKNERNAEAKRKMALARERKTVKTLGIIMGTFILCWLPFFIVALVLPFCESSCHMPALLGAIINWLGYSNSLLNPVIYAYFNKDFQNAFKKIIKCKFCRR

Homo sapiens [7] = species on record: Homo sapiens; assay: Selectivity ratio of Ki for human 5-HT1A receptor to Ki for human 5-HT7 receptor

Sequence of 5-hydroxytryptamine receptor 1B (Homo sapiens) (P28222 whole entry): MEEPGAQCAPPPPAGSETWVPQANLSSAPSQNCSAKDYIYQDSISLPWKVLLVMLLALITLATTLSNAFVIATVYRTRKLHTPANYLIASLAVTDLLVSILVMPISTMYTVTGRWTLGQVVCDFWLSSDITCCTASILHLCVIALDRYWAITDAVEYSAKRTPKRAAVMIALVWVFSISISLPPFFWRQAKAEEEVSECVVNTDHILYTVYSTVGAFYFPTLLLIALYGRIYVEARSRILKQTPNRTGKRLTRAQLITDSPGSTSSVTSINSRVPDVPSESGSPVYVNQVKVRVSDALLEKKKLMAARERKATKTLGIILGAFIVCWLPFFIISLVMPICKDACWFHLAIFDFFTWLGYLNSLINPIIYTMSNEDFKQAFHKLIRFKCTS
T2 sequence (P34969 whole entry): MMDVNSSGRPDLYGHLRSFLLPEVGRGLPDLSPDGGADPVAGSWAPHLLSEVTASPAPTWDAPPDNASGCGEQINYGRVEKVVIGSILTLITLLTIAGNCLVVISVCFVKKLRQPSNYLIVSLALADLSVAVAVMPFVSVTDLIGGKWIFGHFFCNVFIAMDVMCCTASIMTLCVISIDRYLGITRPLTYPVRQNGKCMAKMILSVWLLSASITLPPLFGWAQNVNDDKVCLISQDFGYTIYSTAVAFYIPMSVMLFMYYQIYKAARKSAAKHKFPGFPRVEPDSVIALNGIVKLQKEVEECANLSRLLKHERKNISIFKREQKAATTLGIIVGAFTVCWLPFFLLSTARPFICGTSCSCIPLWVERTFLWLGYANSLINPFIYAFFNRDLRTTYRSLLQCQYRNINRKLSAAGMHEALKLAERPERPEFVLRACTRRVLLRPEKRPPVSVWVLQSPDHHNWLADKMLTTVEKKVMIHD

Row | Ki [1] [nM] | Ki [2] [nM] | Compound | also measured
1 | 363 | 147 | Cc1sc2nc(CCCCCN3CCN(Cc4ccccc4)CC3)[nH]c(=O)c2c1C | 
2 | 2.96 | 21.2 | O=c1[nH]c(CCCCN2CCN(c3cccc(Cl)c3)CC2)nc2ccccc12 | 
3 | 6.28 | 35.8 | O=c1c2ccccc2ncn1CCCCCN1CCN(c2cccc(Cl)c2)CC1 | 
4 |  |  | Cc1sc2nc(CCCCN3CCC(Cc4ccccc4)CC3)[nH]c(=O)c2c1C | inhibition [3]: < 50%
5 | 1.03 | 2.99 | CCOc1ccccc1N1CCN(CCCCCn2cnc3sc(C)c(C)c3c2=O)CC1 | inhibition [4]: 38%
6 | 3.23 | 88.5 | Cc1sc2ncn(CCCCCN3CCN(c4cccc(Cl)c4)CC3)c(=O)c2c1C | Ratio Ki (Homo sapiens [5]): 27
7 | 211 | 1650 | Cc1sc2ncn(CCCCCN3CCN(Cc4ccccc4)CC3)c(=O)c2c1C | 
8 | 26.4 | 213 | Cc1sc2ncn(CCCCCN3CCN(c4ccc(Cl)cc4)CC3)c(=O)c2c1C | 
9 | 7.33 | 11.9 | O=c1[nH]c(CCCCCN2CCN(c3cccc(Cl)c3)CC2)nc2ccccc12 | 
10 | 43.5 | 228 | O=c1[nH]c(CCCCCN2CCN(c3ccccc3)CC2)nc2ccccc12 | 
11 | 36.6 | 145 | O=c1[nH]c(CCCCN2CCN(c3ccccc3)CC2)nc2ccccc12 | 
12 | 5.3 | 502 | O=c1c2ccccc2ncn1CCCCN1CCN(c2cccc(Cl)c2)CC1 | Ki [6]: 50 nM
13 | 116 | 101 | O=c1[nH]c(CCCCCN2CCN(c3ccc(Cl)cc3)CC2)nc2ccccc12 | 
14 | 75.3 | 1140 | O=c1[nH]c(CCCCN2CCN(c3ccc(Cl)cc3)CC2)nc2ccccc12 | 
15 | 51.5 | 12.9 | O=c1c2ccccc2ncn1CCCCCN1CCN(c2ccc(Cl)cc2)CC1 | 
16 | 28.9 | 307 | O=c1c2ccccc2ncn1CCCCCN1CCN(c2ccccc2)CC1 | 
17 | 16.1 | 143 | Cc1sc2ncn(CCCCCN3CCN(c4ccccc4)CC3)c(=O)c2c1C | 
18 | 1.04 | 6.88 | CCOc1ccccc1N1CCN(CCCCCn2cnc3ccccc3c2=O)CC1 | inhibition [4]: 42%
19 | 15.2 | 30.1 | Cc1sc2nc(CCCCCN3CCN(c4ccccc4)CC3)[nH]c(=O)c2c1C | 
20 | 39.6 | 168 | NC(=O)c1ccccc1NC(=O)CCCCN1CCN(c2cccc(Cl)c2)CC1 | 
21 |  |  | Cc1sc2nc(CCCCN3CCN(Cc4ccccc4)CC3)[nH]c(=O)c2c1C | inhibition [3]: < 50%
22 | 37.4 | 357 | Cc1sc2nc(CCCCN3CCN(c4ccccc4)CC3)[nH]c(=O)c2c1C | Ratio Ki (Homo sapiens [5]): 10
23 |  |  | CC1CCN(CC[C@H]2CCCN2S(=O)(=O)c2cccc(O)c2)CC1 | inhibition [4]: 90%
24 | 114 | 68.4 | Cc1sc2nc(CCCCCN3CCN(c4cccc(Cl)c4)CC3)[nH]c(=O)c2c1C | Ratio Ki (Homo sapiens [7]): 2
25 | 268 | 1080 | O=c1c2ccccc2ncn1CCCCCN1CCN(Cc2ccccc2)CC1 | 
26 | 53.9 | 1460 | Cc1sc2nc(CCCCCN3CCN(c4ccc(Cl)cc4)CC3)[nH]c(=O)c2c1C | 
27 | 148 | 185 | Cc1sc2nc(CCCCCN3CCC(Cc4ccccc4)CC3)[nH]c(=O)c2c1C | 

Reference: ChEMBL document CHEMBL3400047, “Synthesis and binding properties of new long-chain 4-substituted piperazine derivatives as 5-HT₁A and 5-HT₇ receptor ligands” (Bioorg Med Chem Lett, 2015)
